# No end group written: not given here.
# Assays:
# [1] = tested on: LAMP2; test: Expression of the LAMP2 autophagy marker in skin biopsies with or without multi-toxin (cigarette smoke) stress; format: cell-based; details: human skin biopsies, extract 1% in a cream, EGCG 200 μg/ml
# Protocol: The objective of this study was to observe the effect of treatment by condurango on skin biopsies previously subjected to multi-toxin stress, brought about by incubating the biopsies with cigarette smoke.
# The selected marker is the lysosomal membrane protein LAMP2A, which is involved in the process of autophagy, one of the main pathways of degradation of cellular waste.
# Human skin biopsies in culture were placed in a sealed chamber saturated with cigarette smoke for 30 minutes. This stress was referred to as multi-toxic stress due to the cigarette smoke being composed of toxic molecules from different classes. After the stress, the biopsies were placed in culture and treated by the condurango extract obtained from example 4 and formulated to 1% (mass/mass) in a cream, as in example 5. […]
# At the end of this incubation, the protein LAMP2 was detected by immunomarking on skin biopsy sections.
# This technique was performed on paraffin skin sections incubated in the presence of the anti-LAMP2 antibody (rabbit polyclonal antibody, Abcam) After 1 hour of incubation followed by rinsings, the sections were incubated in the presence of secondary anti-rabbit antibody coupled with a fluorophore (Alexa Fluor® 488, Invitrogen). The sections were then examined under epi-fluorescence microscope (Zeiss Axiovert 200M microscope). The expression of LAMP2 was then observed and quantified at epidermis level.
# [2] = tested on: interleukin-6 (IL-6); test: Salting-out of interleukin-6 by skin biopsies subjected to stress by substance P (ELISA); format: cell-based, human; details: substance P 10^−6 M in culture medium, 48 hours, extract 1% in a cream where applied
# Source text: The objective of this experiment was to study the effect of the condurango extract on skin biopsies subjected to a stress by the substance P. The substance P was the central mediator of neurogenic inflammation (inflammation mediated via the peripheral nervous system). The neuropeptide is involved in various processes, including acute or chronic inflammation, and the perception of pain or nociception. The effect of the stress, whether or not brought about in the presence of the condurango extract, was studied by measuring the salting-out of interleukin-6 (IL-6), a cytokine synthesised by skin cells and considered to be a nociceptive inflammation mediator (O'Donovan A et al. Clinical anxiety, cortisol and interleukin-6: evidence for specificity in emotion-biology relationships. Brain Behav Immun. 2010 October; 24(7):1074-7).
# Skin biopsies in culture were treated with the condurango extract obtained from example 4, formulated to 1% in a cream, as in example 5, with or without addition of substance P at 10^−6 M in the culture medium.
# After 48 hours of incubation, the culture medium of the biopsies was collected and the level of IL-6 was measured by ELISA.
molecule,measurement,setting,value
"O=C(O[C@@H]1Cc2c(O)cc(O)cc2O[C@@H]1c1cc(O)c(O)c(O)c1)c1cc(O)c(O)c(O)c1 [EGCG, epigallocatechin gallate]",increase of LAMP2 after multi-toxic stress,[1]; cigarette smoke 30 minutes then treatment,+26%
same,"rise in the marking intensity of LAMP2, in the absence of stress","[1]; no stress, 48 hours",+27%
"substance P: neuropeptide, central mediator of neurogenic inflammation, used as stressor (RPKPQQFFGLM; ends and bridges not checked; UniProt P20366 58-68, looked up)",level of IL-6 compared to the non-stressed control,[2],+68%
